Results taken from patent US20170339949A1, “SUGAR SURFACTANTS AND USE THEREOF IN AGROCHEMICAL COMPOSITIONS” (Clariant International Ltd., priority 2014, published 2017).

What was measured:
[1] = system: apple leaf cuticles; assay: Membrane penetration test with apple leaf cuticles for mesotrione; format: in vitro ADME; details: summary in words of Table 1
Source text: Increasing the absorption of systemic active ingredients using the example of mesotrione and test system for measurement of the promotion of penetration of active ingredients
Surfactants can promote the absorption of (active) ingredients through membranes such as skin, films or the plant cuticle. As a “finite-dose” application, it is known for the single administration or application of a solution, cream, gel etc. to a membrane that the absorption of active ingredient can be influenced by some additives such as surfactants even after wetting. This effect is independent of the interfacial effect in water, is often highly concentration-dependent and takes place for the most part after evaporation of water and any solvents present rather than as a result of the interaction, for example, with active ingredient, membrane and environmental factors. […]
The potential of the test substances, which is independent of the surfactant action, to promote foliar absorption of active agrochemical ingredients was determined in membrane penetration tests with apple leaf cuticles for mesotrione. […] At regular intervals, aliquot samples were taken and the proportion of active ingredient penetrated was determined by HPLC. During the experiment, the temperature in the system (block, diffusion cells, liquids, etc.) and the air humidity above the spray coating on the cuticle were known exactly and were monitored. […]

[2] = Dynamic surface tension (Krüss PocketDyne BP2100); format: physicochemical; details: for Surface tension: 24.6° C.
Source text: In the case of plants that are difficult to wet, such as the cereal plants wheat, barley, triticale, rye and oats, in the case of further large-scale crops corn, rice, soya and oilseed rape, and also in the case of almost all weed grasses and numerous dicotyledonous weeds that are difficult to control, such as Chenopodium album or Euphorbium heterophyllum, the promotion of the adsorption of the spray liquid on the green parts of the plant is of crucial significance. This wetting agent effect was therefore also determined for the glucamides.
For a given application technique or parameters (nozzle, pressure, water application rate, distance from the plant surface), the value for the dynamic surface tension in [mN/m] correlates well with the adhesion on plants that are difficult to wet such as barley (or cereals in general) and weed grasses. A value of 50 mN/m (at 20-21° C.) with respect to water (72.8 mN/m) results in an improvement in the adhesion from “zero adhesion” to about 50% (Baur P, Pontzen R 2007. Basic features of plant surface wettability and deposit formation and the impact of adjuvants. In: R E Gaskin ed. Proceeding of the 8th International Symposium on Adjuvants for Agrochemicals. Publisher: International Society for Agrochemical Adjuvants (ISAA), Columbus, Ohio, USA). A value below 60 mN/m at 200 ms gives visibly better adsorption of aqueous spray liquids; in the case of standard flat jet nozzles, optimal wetting is achieved.
The values for dynamic surface tension (Krüss PocketDyne BP2100, T 24.6° C.) are shown below at for the linear C810 glucamide and the decene glucamide and a pelargonamide.

[3] = weak organic acid; cited from earlier work

**Q.** For `CCCCCCCCC(=O)N(C)C[C@H](O)[C@@H](O)[C@H](O)[C@H](O)CO` [N-Methyl-N-nonanoylglucamine, N-methyl-N-nonanoylglucamine], which “Promotion of penetration of mesotrione compared to the linear mixture of C8 and C10 glucamide” value [1] is on record?
**A.** likewise falls short

**Q.** And the Surface tension ([2]; conc. 0.6 g/L, 20 ms)?
**A.** 70.2 mN/m

**Q.** And the Surface tension ([2]; conc. 0.6 g/L, 50 ms)?
**A.** 68.8 mN/m

**Q.** What about the Surface tension ([2]; conc. 0.6 g/L, 100 ms) of the same compound?
**A.** 67.7 mN/m

**Q.** What about the Surface tension ([2]; conc. 0.6 g/L, 200 ms) of the same compound?
**A.** 67.1 mN/m

**Q.** And the Surface tension ([2]; conc. 1.25 g/L, 20 ms)?
**A.** 66.0 mN/m

**Q.** And the Surface tension ([2]; conc. 1.25 g/L, 50 ms)?
**A.** 63.7 mN/m

**Q.** And the Surface tension ([2]; conc. 1.25 g/L, 100 ms)?
**A.** 62.6 mN/m

**Q.** And the Surface tension ([2]; conc. 1.25 g/L, 200 ms)?
**A.** 61.1 mN/m

**Q.** What about the Surface tension ([2]; conc. 2.5 g/L, 20 ms) of the same compound?
**A.** 59.1 mN/m

**Q.** And the Surface tension ([2]; conc. 2.5 g/L, 50 ms)?
**A.** 56.3 mN/m

**Q.** What about the Surface tension ([2]; conc. 2.5 g/L, 100 ms) of the same compound?
**A.** 55.3 mN/m

**Q.** What about the Surface tension ([2]; conc. 2.5 g/L, 200 ms) of the same compound?
**A.** 53.8 mN/m

**Q.** What about the Surface tension ([2]; conc. 5 g/L, 20 ms) of the same compound?
**A.** 47.7 mN/m

**Q.** And the Surface tension ([2]; conc. 5 g/L, 50 ms)?
**A.** 45.6 mN/m

**Q.** And the Surface tension ([2]; conc. 5 g/L, 100 ms)?
**A.** 45.2 mN/m

**Q.** What about the Surface tension ([2]; conc. 5 g/L, 200 ms) of the same compound?
**A.** 44.3 mN/m

**Q.** Which pKa [3] does the source give for `CS(=O)(=O)c1ccc(C(=O)C2C(=O)CCCC2=O)c([N+](=O)[O-])c1` [Mesotrione, mesotrione] here?
**A.** 3.1

**Q.** Which results are given for `C=CCCCCCCCC(=O)N(C)C[C@H](O)[C@@H](O)[C@H](O)[C@H](O)CO` [N-Methyl-N-dec-9-enoylglucamine, N-methyl-N-dec-9-enoylglucamine]?
**A.** Promotion of penetration of mesotrione compared to the linear mixture of C8 and C10 glucamide [1]: higher promotion of penetration of mesotrione; Surface tension ([2]; conc. 0.6 g/L, 20 ms): 70.2 mN/m; Surface tension ([2]; conc. 0.6 g/L, 50 ms): 68.9 mN/m; Surface tension ([2]; conc. 0.6 g/L, 100 ms): 67.6 mN/m; Surface tension ([2]; conc. 0.6 g/L, 200 ms): 67.4 mN/m; Surface tension ([2]; conc. 1.25 g/L, 20 ms): 66.4 mN/m; Surface tension ([2]; conc. 1.25 g/L, 50 ms): 63.7 mN/m; Surface tension ([2]; conc. 1.25 g/L, 100 ms): 61.8 mN/m; Surface tension ([2]; conc. 1.25 g/L, 200 ms): 61.0 mN/m; Surface tension ([2]; conc. 2.5 g/L, 20 ms): 59.7 mN/m; Surface tension ([2]; conc. 2.5 g/L, 50 ms): 56.6 mN/m; Surface tension ([2]; conc. 2.5 g/L, 100 ms): 55.5 mN/m; Surface tension ([2]; conc. 2.5 g/L, 200 ms): 54.1 mN/m; Surface tension ([2]; conc. 5 g/L, 20 ms): 50.5 mN/m; Surface tension ([2]; conc. 5 g/L, 50 ms): 48.3 mN/m; Surface tension ([2]; conc. 5 g/L, 100 ms): 47.7 mN/m; Surface tension ([2]; conc. 5 g/L, 200 ms): 46.6 mN/m; Suitability as wetting agent compared to Synergen GA (C810) ([2]; summary in words of dynamic surface tension results): wetting agent of comparable suitability
